Among the data in PubChem BioAssay (NCI) are TGI values, retold here.

Test systems include OVCAR-8 ovarian; EKVX NSCLC; HCT-116 colon; SNB-75 CNS; PC-3 prostate; IGROV1 ovarian; HL-60(TB) leukemia; NCI-H226 lung; COLO 205 colon; 786-0 renal.
Assay in all cases: NCI anticancer screen, dose series, 48 h

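1) Cells in 96-well plates. 2) Compound, 48 h, 5 concentrations. 3) Linear interpolation between surrounding doses. 4) Unreached endpoint = highest concentration. TGI: total growth inhibition.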

`C=CCN(CCNS(=O)(=O)c1ccc(C)cc1)S(=O)(=O)c1ccc(C)cc1`: the TGI in the experiment on OVCAR-8 ovarian was > 100 µM; in the experiment with EKVX NSCLC it was 96.9 µM; in the experiment on HCT-116 colon, > 100 µM; in the experiment with SNB-75 CNS, > 100 µM; in the experiment with PC-3 prostate, > 100 µM; in the experiment with IGROV1 ovarian, > 100 µM. Also, the TGI with HL-60(TB) leukemia was 47.6 µM; with NCI-H226 lung it was > 100 µM; with COLO 205 colon, > 60.5 µM; with 786-0 renal, > 100 µM.
Take `CC(=O)Oc1c2c(c3n(c1=O)CCCC3)C(=O)N(c1ccccc1)C2=O`: the TGI in the experiment on OVCAR-8 ovarian, with EKVX NSCLC, in the experiment with HCT-116 colon, in the experiment with SNB-75 CNS, in the experiment on PC-3 prostate and in the experiment with IGROV1 ovarian was > 100 µM throughout. Further, the TGI in the experiment with HL-60(TB) leukemia, in the experiment with NCI-H226 lung, in the experiment on COLO 205 colon and in the experiment with 786-0 renal was > 100 µM in each case.
On to `COc1cc2c3c(n(C)c(=O)c2cc1OC)-c1cc2c(cc1/C3=C\CCCI)OCO2`, for which the TGI in the experiment with OVCAR-8 ovarian was > 100 µM; with EKVX NSCLC it was > 100 µM; in the experiment with HCT-116 colon, > 100 µM; with SNB-75 CNS, > 52 µM; in the experiment with PC-3 prostate, > 100 µM; in the experiment on IGROV1 ovarian, > 46.7 µM. For the same molecule, the TGI in the experiment on HL-60(TB) leukemia, in the experiment on NCI-H226 lung, in the experiment on COLO 205 colon and in the experiment with 786-0 renal was > 100 µM in each case.
For `O=c1ccn(C2OC(CO)C(O)C2F)c(=O)n1Cc1ccccc1` (stereo not given), the TGI with OVCAR-8 ovarian, in the experiment with EKVX NSCLC, in the experiment with HCT-116 colon, with SNB-75 CNS, with PC-3 prostate and in the experiment with IGROV1 ovarian was > 100 µM each time. For the same molecule, the TGI in the experiment with HL-60(TB) leukemia, in the experiment with NCI-H226 lung, in the experiment on COLO 205 colon and in the experiment on 786-0 renal was > 100 µM throughout.
Turning to `COc1ccc(N=NC(=O)NC(CC(C)C)C(N)=O)cc1` (stereo not given), the TGI in the experiment with OVCAR-8 ovarian was > 100 µM; with EKVX NSCLC, > 100 µM; in the experiment with HCT-116 colon, > 31.6 µM; in the experiment on SNB-75 CNS, > 100 µM; with PC-3 prostate it was > 100 µM; in the experiment on IGROV1 ovarian, > 100 µM. For the same molecule, the TGI in the experiment on HL-60(TB) leukemia was > 100 µM; in the experiment with NCI-H226 lung, > 100 µM; in the experiment with COLO 205 colon it was 24.9 µM; in the experiment on 786-0 renal, > 31.6 µM.
As for `CC1(C)CCC(C)(C)C1C(=O)NC(O)C(=O)O` (stereo not given), the TGI in the experiment with OVCAR-8 ovarian, in the experiment on EKVX NSCLC, in the experiment with HCT-116 colon, in the experiment on SNB-75 CNS, in the experiment with PC-3 prostate and with IGROV1 ovarian was > 100 µM in each case. In addition, the TGI with HL-60(TB) leukemia, in the experiment with NCI-H226 lung, with COLO 205 colon and in the experiment with 786-0 renal was > 100 µM throughout.
Turning to `Cn1ncc2c(Cl)ncnc21`, the TGI in the experiment with OVCAR-8 ovarian, in the experiment on EKVX NSCLC, with HCT-116 colon, in the experiment on SNB-75 CNS, in the experiment on PC-3 prostate and with IGROV1 ovarian was > 100 µM in each case. Besides, the TGI in the experiment on HL-60(TB) leukemia, in the experiment on NCI-H226 lung, in the experiment on COLO 205 colon and in the experiment on 786-0 renal was > 100 µM each time.
Turning to `CC(C)(C)OC(=O)CN1CCNCCN(CC(=O)OC(C)(C)C)CCNCC1`, the TGI with OVCAR-8 ovarian, with EKVX NSCLC, in the experiment on HCT-116 colon, in the experiment on SNB-75 CNS, in the experiment on PC-3 prostate and in the experiment on IGROV1 ovarian was > 100 µM in each case. The TGI in the experiment on HL-60(TB) leukemia, in the experiment with NCI-H226 lung, with COLO 205 colon and in the experiment with 786-0 renal was > 100 µM throughout.
For the molecule `Cc1nc(C)c(N2CCNCC2)c(=O)[nH]1`, the TGI in the experiment with OVCAR-8 ovarian, in the experiment on EKVX NSCLC, in the experiment on HCT-116 colon, in the experiment with SNB-75 CNS, in the experiment with PC-3 prostate and in the experiment on IGROV1 ovarian was > 100 µM in each case. Besides, the TGI with HL-60(TB) leukemia, with NCI-H226 lung, in the experiment on COLO 205 colon and in the experiment with 786-0 renal was > 100 µM each time.
With `Cc1ccc(C(=O)Nc2ccc(CP(=O)(O)O)cc2CP(=O)(O)O)cc1NC(=O)Nc1cc(C(=O)Nc2ccc(CP(=O)(O)O)cc2CP(=O)(O)O)ccc1C`, the TGI in the experiment on OVCAR-8 ovarian, with EKVX NSCLC, with HCT-116 colon, with SNB-75 CNS, in the experiment with PC-3 prostate and in the experiment on IGROV1 ovarian was > 100 µM in each case. Besides, the TGI with HL-60(TB) leukemia, in the experiment with NCI-H226 lung, with COLO 205 colon and with 786-0 renal was > 100 µM in each case.
As for `Cc1ccc(-c2nc(N/N=C/c3ccc(O)cc3)c3ccccc3n2)cc1`, the TGI with OVCAR-8 ovarian is > 100 µM; with EKVX NSCLC, 37.4 µM; in the experiment on HCT-116 colon, 37.6 µM; in the experiment on SNB-75 CNS it was 64 µM; with PC-3 prostate it was 31.7 µM; with IGROV1 ovarian, > 100 µM. In addition, the TGI with HL-60(TB) leukemia is > 100 µM; with NCI-H226 lung, > 100 µM; in the experiment on COLO 205 colon, > 100 µM; with 786-0 renal, 71.9 µM.
Take `CC(=O)Nc1ccc2[nH]c(C(=O)N3CC(CCl)c4c3cc([N+](=O)[O-])c3ccccc43)cc2c1` (stereo not given): the TGI in the experiment with OVCAR-8 ovarian was > 100 µM; with EKVX NSCLC, > 89.4 µM; in the experiment on HCT-116 colon, > 100 µM; in the experiment on SNB-75 CNS it was > 64.4 µM; in the experiment on PC-3 prostate, > 100 µM; with IGROV1 ovarian, > 53 µM. Besides, the TGI in the experiment with HL-60(TB) leukemia is 23 µM; in the experiment on NCI-H226 lung it was 58.8 µM; with COLO 205 colon, > 100 µM; with 786-0 renal it was > 100 µM.
